Data taken from publication PMC2263054, “Functional evolution of the vitamin D and pregnane X receptors” (BMC Evolutionary Biology, 2007).

How the values were obtained:
[1] = test system: 6β- and 12α-hydroxylation of testosterone; assay: testosterone hydroxylation (HPLC) in African clawed frog primary hepatocytes; assay type: cell-based, Xenopus laevis; settings: relative to vehicle control
Method: Xenopus laevis primary hepatocytes were cultured by a protocol adapted from a published report. Frogs are sacrificed with MS-222, rinsed with 70% ethanol, and the liver lobes perfused via the heart, initially with 375 mL Barth (88 mM NaCl, 1 mM K2SO4, and 10 mM HEPES-NaOH, pH 7.4) containing 0.82 mM MgCl2 and 0.1 mg/mL heparin, and then with 25 mL Barth containing 2.22 mM Ca(NO3)2, 2.74 mM CaCl2, and 200 U/mL type I collagenase (Worthington Chemicals, Lakewood, NJ). Livers are minced to fine pieces in 12.5 mL Barth-collagenase solution and then incubated for 10 min at room temperature, periodically disaggregating the liver pieces with a Pasteur pipette. The liver cells are then placed on a shaking incubator for 5 min at room temperature, followed by another 10 min of periodic pipetting to complete disaggregation. Cells are then filtered through a 130 μm Nitex nylon mesh (Fisher Scientific), following by spinning at 500 g for 5 min at 4°C. The supernatant is then aspirated and diluted to 50 mL with Barth plus MgCl2 and then allowed to settle while cooled in ice for 30 min. The supernatant is removed, and the cellular pellet is resuspended and subjected to one more round of nylon mesh filtration, dilution in Barth plus MgCl2, and settling while cooled in ice. The supernatant is removed and the remaining cells are washed once with Barth plus MgCl2 and then centrifuged at 500 g for 5 min at 4°C. The cells are then resuspended in 0.6 × Coon's Modified Ham's F-12 medium (Invitrogen) supplemented with 0.1 × Barth (88 mM NaCl, 1 mM K2SO4, 10 mM HEPES), 200 U/mL penicillin G, 100 μg/mL streptomycin sulfate, 2 mM glutamine, 0.2% glucose, and 10 μg/mL bovine insulin (Calbiochem), with the final pH adjusted to 7.5. […] Cells are cultured at 20°C in ambient atmosphere.
Testosterone metabolites were identified and quantitated by HPLC. […] The supernatant was then injected into the HPLC.

[2] = test system: PXR; assay: zebrafish in vivo liver transcription, semi-quantitative RT-PCR: PXR; settings: zebrafish, 15 mg/kg intraperitoneally, single dose, 48 hr
Method: (§1) Adult zebrafish were purchased from a commercial fish supplier and acclimatized for at least two-weeks in 20 L tanks with flow-through freshwater at 22°C. A single dose of 15 mg/kg of 5α-cyprinol, 5β-cyprinol 27-sulfate, 5α-scymnol or 5β-scymnol-27 sulfate, dissolved in saline, was injected intraperitoneally. A control group was injected with saline. After 48 hr, the animals were decapitated and livers of three fish (n = 5 each group) were removed, pooled and weighed, totalizing 15 fish per group. Fish were not fed throughout the experimental period. […].
(§2) To study the transcription of CYP3C1, ABCB5, PXR, GAPDH and β-actin genes in zebrafish, initial fragments of these genes were identified (Genbank: AW202769, Genbank: BQ284593, Genbank: AAM22215, Genbank: BC083506, Genbank: AF057040, respectively). The PCR primers for CYP3C1 were designed using MacVector Software and primers for MDR1 were designed using Primer 3 Software (Whitehead Institute for Biomedical Research; [75]). Primer pairs for amplifying CYP3C1 fragment were 5'-[…]-3' (sense) and 5'-[…]-3' (antisense) and for amplifying ABCB5 were 5'-[…]-3' (sense) and 5'-[…]-3' (antisense). The PCR primers for PXR were 5'-[…]-3' (sense) and 5'-[…]-3' (antisense), for amplifying GAPDH were 5'-[…]-3' (sense) and 5' […] 3' (antisense) and for β-actin were 5'-[…]-3' (sense) and 5'-[…]-3' (antisense). RNA was isolated using Trizol (Invitrogen) according to manufacturer's instructions. Purity and concentration of RNA of each sample were verified at 260 nm. The RNA integrity was checked by non-denaturing gel electrophoresis using 1 μg of total RNA in each sample.
(§3) Two micrograms of total RNA were reversed transcribed using Ominiscript RT Kit (Qiagen, Valencia, CA, USA). cDNA concentration was checked at 260 nm, and the amount adjusted to 1 μg to perform semi-quantitative RT-PCR. The expected size of the PXR, Cyp3C1, abcb5, GAPDH and β-actin fragments were 577, 477, 218, 234 and 550 bp, respectively. Biotools DNA polymerase (Biotools B&M Labs, S.A., Madrid, Spain) kit was used for the PCR reaction using a thermocycler Personal Mastercycler (Eppendörf) with the following PCR program: 5 cycles of 94°C for 5 s, 72°C for 35 s; 5 cycles of 94°C for 5 s, 70°C for 10 s, 72°C for 35 s; and 23, 24, 35, 15 and 24 cycles (PXR, Cyp3C1, abcb5, GAPDH and β-actin, respectively) of 94°C for 5 s, 61, 54, 48, 49 and 61°C for 10 s (PXR, Cyp3C1, abcb5, GAPDH and β-actin, respectively), and 72°C for 35 s. The PXR, CYP3C1, ABCB5 and GAPDH transcript levels were quantified using Gel-Quant™ (Multiplexed Biotechologies) and β-actin was used to normalize the data. The Shapiro-Wilk W test was used to evaluate normality. When data were parametric the analysis was performed using Student t test; otherwise Mann Whitney U test was applied. […]

[3] = test system: zebrafish PXR; settings: ref [29],[53]; cited from earlier work
[4] = biological target: T1, Sea lamprey VDR (Petromyzon marinus, UniProt Q7ZZY9); assay type: cell-based; settings: screening for activators, at least three concentrations of each drug
T1 sequence (Q7ZZY9 92-406): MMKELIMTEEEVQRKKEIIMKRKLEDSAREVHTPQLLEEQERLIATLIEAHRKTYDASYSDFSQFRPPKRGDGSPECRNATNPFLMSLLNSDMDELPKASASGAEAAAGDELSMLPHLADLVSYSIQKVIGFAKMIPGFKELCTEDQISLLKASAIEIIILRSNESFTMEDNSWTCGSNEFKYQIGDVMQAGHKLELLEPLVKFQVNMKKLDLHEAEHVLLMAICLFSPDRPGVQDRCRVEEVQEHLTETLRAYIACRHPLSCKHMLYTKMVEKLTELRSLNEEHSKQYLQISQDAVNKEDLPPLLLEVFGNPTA

[5] = test system: MDR1 (tentatively classified as ABCB5 in zebrafish); assay: zebrafish in vivo liver transcription, semi-quantitative RT-PCR: MDR1; settings: zebrafish, 15 mg/kg intraperitoneally, single dose, 48 hr
Method: as §1, §2, §3

[6] = test system: β-actin; assay: zebrafish in vivo liver transcription, semi-quantitative RT-PCR: β-actin; settings: zebrafish, 15 mg/kg intraperitoneally, single dose, 48 hr
Method: as §1, §2, §3

[7] = biological target: T2, Xenopus laevis VDR (Xenopus laevis, UniProt O13124); assay: luciferase reporter transactivation assay in HepG2-NTCP cells, GAL4/xlVDR LBD chimera with tk-UAS-Luc; assay type: cell-based; settings: screening for activators, at least three concentrations of each drug
T2 sequence (O13124 90-422): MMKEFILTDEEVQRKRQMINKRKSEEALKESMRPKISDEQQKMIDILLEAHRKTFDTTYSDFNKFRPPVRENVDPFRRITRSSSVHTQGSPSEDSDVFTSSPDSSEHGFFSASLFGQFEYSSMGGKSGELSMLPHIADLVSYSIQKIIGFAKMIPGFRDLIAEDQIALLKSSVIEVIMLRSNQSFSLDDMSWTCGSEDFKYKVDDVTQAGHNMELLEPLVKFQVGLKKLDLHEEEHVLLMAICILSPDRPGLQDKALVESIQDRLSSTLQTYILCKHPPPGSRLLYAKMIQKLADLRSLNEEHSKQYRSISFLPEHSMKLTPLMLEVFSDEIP

[8] = biological target: T3, Zebrafish VDR (Danio rerio, UniProt Q9PTN2); assay: luciferase reporter transactivation assay in HepG2-NTCP cells, GAL4/zfVDR LBD chimera with tk-UAS-Luc; assay type: cell-based; settings: screening for activators, at least three concentrations of each drug
T3 sequence (Q9PTN2 121-453): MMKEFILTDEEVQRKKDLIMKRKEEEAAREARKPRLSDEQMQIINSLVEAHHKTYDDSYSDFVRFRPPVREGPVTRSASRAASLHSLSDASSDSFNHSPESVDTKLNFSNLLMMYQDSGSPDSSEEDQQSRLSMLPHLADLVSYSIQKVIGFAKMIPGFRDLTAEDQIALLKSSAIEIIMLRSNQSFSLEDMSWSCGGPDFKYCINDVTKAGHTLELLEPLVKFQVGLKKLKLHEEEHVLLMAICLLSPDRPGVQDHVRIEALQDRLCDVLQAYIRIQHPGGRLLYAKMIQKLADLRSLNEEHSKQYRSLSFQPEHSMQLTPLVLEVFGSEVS

[9] = test system: glyceraldehyde 3-phosphate dehydrogenase (GAPDH); assay: zebrafish in vivo liver transcription, semi-quantitative RT-PCR: GAPDH; settings: 15 mg/kg intraperitoneally, single dose, 48 hr
Method: Adult zebrafish were purchased from a commercial fish supplier and acclimatized for at least two-weeks in 20 L tanks with flow-through freshwater at 22°C. A single dose of 15 mg/kg of 5α-cyprinol, 5β-cyprinol 27-sulfate, 5α-scymnol or 5β-scymnol-27 sulfate, dissolved in saline, was injected intraperitoneally. A control group was injected with saline. After 48 hr, the animals were decapitated and livers of three fish (n = 5 each group) were removed, pooled and weighed, totalizing 15 fish per group. Fish were not fed throughout the experimental period.
as §2, with “The PCR primers for CYP3C1 were designed using MacVector Software and primers for MDR1 were designed using Primer 3 Software (Whitehead Institute for Biomedical Research; [75]).” left out, “Purity and concentration of RNA of each sample were verified at 260 nm.” left out
The PXR, CYP3C1, ABCB5 and GAPDH transcript levels were quantified using Gel-Quant™ (Multiplexed Biotechologies) and β-actin was used to normalize the data. The Shapiro-Wilk W test was used to evaluate normality. When data were parametric the analysis was performed using Student t test; otherwise Mann Whitney U test was applied.

[10] = test system: CYP3C1; assay: zebrafish in vivo liver transcription, semi-quantitative RT-PCR: CYP3C1; settings: zebrafish, 15 mg/kg intraperitoneally, single dose, 48 hr
Method: as §1, §2, §3

[11] = test system: EROD activity; assay: EROD assay in sea lamprey primary hepatocytes; settings: 24–48 hr exposure
[12] = test system: testosterone 6β-hydroxylation activity (CYP3A-like activity); assay: in vitro
Method: (§4) The cells are cultured at 26°C in ambient atmosphere.
(§5) 100 μL of sample, calibration standard, or quality material standard were pipetted into separate microcentrifuge tubes and mixed with 100 μL of methanol. Samples were vortexed and centrifuged at 13,000 rpm for 4 min. The supernatant was then injected into the HPLC.
(§6) The flow rate was 1.2 mL/min and total run time was 25 min.

[13] = test system: testosterone 6β-hydroxylation; assay: testosterone hydroxylation (HPLC) in sea lamprey primary hepatocytes; assay type: cell-based; settings: concentration ranges per compound
Method: as §5, §6

[14] = test system: ethoxyresorufin O-deethylase (EROD) activity (CYP1A-like activity); assay: EROD assay in zebrafish primary hepatocytes; settings: zebrafish primary hepatocytes; DIM at concentrations of 2 μM and greater
Method: as §4

Structure (SMILES) | effect on 6β- and 12α-hydroxylation of testosterone [1] | Effect on sea lamprey VDR [4] | Effect on Xenopus laevis VDR [7] | Effect on zebrafish VDR [8] | effect on EROD activity [11] | effect on testosterone 6β-hydroxylation [13] | other results
CCOC(=O)c1cccc(N)c1 [3-aminoethylbenzoate] | neither activity was substantially increased relative to vehicle control | – | – | – | – | – | –
CC(CCC(O)C(CO)COS(=O)(=O)O)C1CCC2C3C(O)CC4CC(O)CCC4(C)C3CC(O)C12C (stereo not drawn) [5β-scymnol 27-sulfate] | – | No effect | No effect | No effect | – | – | liver transcription of PXR [2]: 0.75 ± 0.33 arbitrary units normalized to β-actin; activity at recombinant zebrafish PXR [3]: weaker activator of recombinant zebrafish PXR; liver transcription of MDR1 (ABCB5) [5]: 1.50 ± 0.58 arbitrary units normalized to β-actin; liver transcription of β-actin [6]: 39.3 ± 17.5 arbitrary units; liver transcription of GAPDH [9]: 1.08 ± 0.50 arbitrary units normalized to β-actin; liver transcription of CYP3C1 [10]: 1.33 ± 0.58 arbitrary units normalized to β-actin
C[C@@]12CCC[C@H]1[C@@H]1CC[C@H]3C[C@H](O)CC[C@]3(C)[C@H]1CC2 [androstanol, 5α-androstan-3α-ol] | – | No effect | No effect | No effect | did not alter EROD activity | None of these compounds produced significant increases in testosterone 6β-hydroxylation | EC50 ([12]; zebrafish): 20 ± 2.7 µM; maximal rate of testosterone 6β-hydroxylation ([12]; zebrafish primary hepatocytes, 48-hour exposure): 717 pmol/min/mg protein
C[C@@H]1C[C@H]2[C@@H]3CCC4=CC(=O)C=C[C@]4(C)[C@@]3(F)[C@@H](O)C[C@]2(C)[C@@]1(O)C(=O)CO [Dexamethasone] | neither activity was substantially increased relative to vehicle control | – | – | – | – | None of these compounds produced significant increases in testosterone 6β-hydroxylation | –
C=C1/C(=C\C=C2/CCC[C@]3(C)[C@@H]([C@H](C)CCCC(C)(C)O)CC[C@@H]23)C[C@@H](O)C[C@@H]1O [1,25-(OH)2-Vitamin D3, 1α,25-(OH)2-vitamin D3] | neither activity was substantially increased relative to vehicle control | – | – | – | did not alter EROD activity | None of these compounds produced significant increases in testosterone 6β-hydroxylation | effect on 6β-hydroxylation of testosterone ([12]; zebrafish primary hepatocytes, calcitriol 1–500 nM): did not increase 6β-hydroxylation of testosterone; effect on EROD activity [14]: found not to affect EROD activity
